Laboratory results as given in patent US20250051347A1, “BIFUNCTIONAL CHIMERIC HETEROCYCLIC COMPOUND AND USE THEREOF AS ANDROGEN RECEPTOR DEGRADER” (Hinova Pharmaceuticals, Inc., priority 2021, published 2025).
Like-named read-outs stand apart in the source and are kept apart here.

What was measured:
[1] = system: 22RV1 cells; settings: Homo sapiens, 22Rv1, 144 h
[2] = molecular target: T1, androgen receptor (AR) splicing variant AR-v7 (Homo sapiens, UniProt P10275); test: Degradation activity on androgen receptor splicing variant AR-v7 in 22RV1 cells (ELISA); type: cell-based; settings: AR-v7 degradation in 22RV1 cells, 48 h
T1 construct: The degradation activity of compounds on AR-v7 in 22RV1 cells; host or cells: 22RV1 cells
T1 sequence (P10275 1-644 isoform P10275-3): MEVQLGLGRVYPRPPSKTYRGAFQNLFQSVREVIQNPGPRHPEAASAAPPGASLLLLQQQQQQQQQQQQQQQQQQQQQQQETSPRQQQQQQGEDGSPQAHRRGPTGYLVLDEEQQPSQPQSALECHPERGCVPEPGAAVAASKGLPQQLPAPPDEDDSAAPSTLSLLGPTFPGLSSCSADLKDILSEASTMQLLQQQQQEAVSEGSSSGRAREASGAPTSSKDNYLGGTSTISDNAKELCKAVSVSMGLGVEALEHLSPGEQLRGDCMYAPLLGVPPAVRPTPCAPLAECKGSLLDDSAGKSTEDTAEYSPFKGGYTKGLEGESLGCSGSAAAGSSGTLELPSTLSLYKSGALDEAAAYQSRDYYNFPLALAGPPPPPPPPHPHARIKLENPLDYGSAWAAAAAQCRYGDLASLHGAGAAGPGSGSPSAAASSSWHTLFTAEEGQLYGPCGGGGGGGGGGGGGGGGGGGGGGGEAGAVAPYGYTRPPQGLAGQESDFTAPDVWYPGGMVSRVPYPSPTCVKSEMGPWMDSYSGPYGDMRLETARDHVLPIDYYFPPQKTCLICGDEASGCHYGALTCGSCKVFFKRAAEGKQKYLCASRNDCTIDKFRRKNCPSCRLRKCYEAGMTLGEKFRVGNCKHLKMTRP

[3] = read-out: 22RV1 IC50 (nM), 22RV1 cells, 6 days culture, CCK-8, OD 450 nm

Row | Structure (SMILES) | DC50 ([2]; class symbols) | further results
1 | CC(C)(c1ccc(OCc2ccnc(N3CC4(COC4)C3)n2)cc1)c1ccc(O[C@H]2C[C@H](Nc3ccc4c(c3)C(=O)N(C3CCC(=O)NC3=O)C4=O)C2)c(F)c1 (stereo partly shown) [Example 364, 5-(((1r,3r)-3-(4-(2-(4-((2-(2-oxa-6-azaspiro[3.3]heptane-6-yl)pyrimidin-4-yl)methoxy)phenyl)isopropan-2-yl)-2-fluorophenoxy)cyclobutyl)amino)-2-(2,6-dioxopiperidin-3-yl)isoindolin-1,3-dione] | – | IC50 ([1]; read-out: 22RV1 IC50 (nM)): 12 nM
2 | CC(C)(c1ccc(OCc2cc(N3CC4(COC4)C3)ncn2)cc1)c1ccc(OC2CC(Nc3ccc4c(c3)C(=O)N(C3CCC(=O)NC3=O)C4=O)C2)cc1 (stereo not shown) [Example 532] | – | IC50 [1, 3]: 9 nM
3 | CC(C)(c1ccc(OCc2cncc(N3CC4(COC4)C3)n2)cc1)c1ccc(O[C@H]2C[C@@H](Nc3ccc4c(c3)C(=O)N(C3CCC(=O)NC3=O)C4=O)C2)cc1 (stereo partly shown) [Example 538] | – | IC50 [1, 3]: 12 nM
4 | CC(C)(c1ccc(OCc2nccc(N3CC4(COC4)C3)n2)cc1)c1ccc(O[C@H]2C[C@H](Nc3ccc4c(c3)C(=O)N(C3CCC(=O)NC3=O)C4=O)C2)cc1 (stereo partly shown) [Example 544] | – | IC50 [1, 3]: 12 nM
5 | CC(C)(c1ccc(OCCCNc2cccc3c2C(=O)N(C2CCC(=O)NC2=O)C3=O)cc1)c1ccc(OCc2ccnc(N3CCC3)n2)cc1 (stereo not shown) [Example 554, 4-((3-(4-(2-(4-((2-(azetidin-1-yl)pyrimidin-4-yl)methoxy)phenyl)propan-2-yl)phenoxy)propyl)amino)-2-(2,6-dioxopiperidin-3-yl)isoindolin-1,3-dione] | 101 to 1000 nM | –
6 | CC(C)(c1ccc(OCCCNc2cccc3c2C(=O)N(C2CCC(=O)NC2=O)C3=O)cc1)c1ccc(OCc2ccnc(N3CCCCC3)n2)cc1 (stereo not shown) [Example 555] | 101 to 1000 nM | –
7 | CC(=O)c1nccc(COc2ccc(C(C)(C)c3ccc(OC4CCN(c5ccc6c(c5)C(=O)N(C5CCC(=O)NC5=O)C6=O)CC4)cc3)cc2)n1 (stereo not shown) [Example 557] | – | DC50 ([2]; numeric values): > 10000 nM
8 | CC(=O)c1nccc(COc2ccc(C(C)(C)c3ccc(N4CC5(CCN(c6ccc7c(c6)C(=O)N(C6CCC(=O)NC6=O)C7=O)CC5)C4)cc3)cc2)n1 (stereo not shown) [Example 559] | 1000 to 5000 nM | –
9 | CC(=O)c1nccc(COc2ccc(C(C)(C)c3ccc(N4CCC5(CCN(c6ccc7c(c6)C(=O)N(C6CCC(=O)NC6=O)C7=O)C5)C4)cc3)cc2)n1 (stereo not shown) [Example 560] | 1000 to 5000 nM | –
10 | CC(=O)c1nccc(COc2ccc(C(C)(C)c3ccc(OC4CC5(C4)CN(c4ccc6c(c4)C(=O)N(C4CCC(=O)NC4=O)C6=O)C5)cc3)cc2)n1 (stereo not shown) [Example 561] | 11 to 100 nM | –
11 | CC(=O)c1nccc(COc2ccc(C(C)(C)c3ccc(OC4CC5(CCN(c6ccc7c(c6)C(=O)N(C6CCC(=O)NC6=O)C7=O)C5)C4)cc3)cc2)n1 (stereo not shown) [Example 562] | 1000 to 5000 nM | –
12 | CC(C)(c1ccc(OCc2ccnc(N3CC4(COC4)C3)n2)cc1)c1ccc(OC2CCC(Nc3ccc4c(c3)C(=O)N(C3CCC(=O)NC3=O)C4=O)C2)cc1 (stereo not shown) [Example 563, 5-((3-(4-(2-(4-((2-(2-oxa-6-azaspiro[3.3]heptan-6-yl)pyrimidin-4-yl)methoxy)phenyl)propan-2-yl)phenoxy)cyclopentyl)amino)-2-(2,6-dioxopiperidin-3-yl)isoindolin-1,3-dione] | 11 to 100 nM | –
13 | CC(C)(c1ccc(OCc2ccnc(N3CC4(COC4)C3)n2)cc1)c1ccc(OC[C@H]2CCCN2Cc2ccc3c(c2)C(=O)N(C2CCC(=O)NC2=O)C3=O)cc1 (stereo partly shown) [Example 565] | 1000 to 5000 nM | –
14 | CC(C)(c1ccc(OCc2ccnc(N3CC4(COC4)C3)n2)cc1)c1ccc(OC[C@@H]2CCN2Cc2ccc3c(c2)C(=O)N(C2CCC(=O)NC2=O)C3=O)cc1 (stereo partly shown) [Example 566] | 1000 to 5000 nM | –
15 | CC(C)(c1ccc(OCc2ccnc(N3CC4(COC4)C3)n2)cc1)c1ccc(OC2CC3(CC(Nc4ccc5c(c4)C(=O)N(C4CCC(=O)NC4=O)C5=O)C3)C2)cc1 (stereo not shown) [Example 567, 5-((6-(4-(2-(4-((2-(2-oxa-6-azaspiro[3.3]heptan-6-yl)pyrimidin-4-yl)methoxy)phenyl)propan-2-yl)phenoxy)spiro[3.3]heptan-2-yl)amino)-2-(2,6-dioxopiperidin-3-yl)isoindolin-1,3-dione] | 101 to 1000 nM | –
16 | CC(C)(c1ccc(OCC(=O)Nc2ccc3c(c2)C(=O)N(C2CCC(=O)NC2=O)C3=O)cc1)c1ccc(OCc2ccnc(N3CC4(COC4)C3)n2)cc1 (stereo not shown) [Example 568] | 11 to 100 nM | –
17 | CC(C)(c1ccc(OCc2ccnc(N3CC4(COC4)C3)n2)cc1)c1ccc(OC2CCCCC2Nc2ccc3c(c2)C(=O)N(C2CCC(=O)NC2=O)C3=O)cc1 (stereo not shown) [Example 569, 5-((2-(4-(2-(4-((2-(2-oxa-6-azaspiro[3.3]heptan-6-yl)pyrimidin-4-yl)methoxy)phenyl)propan-2-yl)phenoxy)cyclohexyl)amino)-2-(2,6-dioxopiperidin-3-yl)isoindolin-1,3-dione] | 1000 to 5000 nM | –
18 | CC(C)(c1ccc(OCc2ccnc(N3CC4(COC4)C3)n2)cc1)c1ccc(N2CC(CNc3ccc4c(c3)C(=O)N(C3CCC(=O)NC3=O)C4=O)C2)cc1 (stereo not shown) [Example 570] | 101 to 1000 nM | –
19 | Cc1nc(-c2cncc(Oc3ccc(C(C)(C)c4ccc(O[C@H]5C[C@H](Nc6ccc7c(c6)C(=O)N(C6CCC(=O)NC6=O)C7=O)C5)cc4)cc3)n2)no1 (stereo partly shown) [Example 585] | 11 to 100 nM | –
20 | Cc1nc(-c2ccc(Oc3ccc(C(C)(C)c4ccc(O[C@H]5C[C@@H](Nc6ccc7c(c6)C(=O)N(C6CCC(=O)NC6=O)C7=O)C5)cc4)cc3)cn2)no1 (stereo partly shown) [Example 587] | 11 to 100 nM | –
21 | Cc1nc(-c2ccc(Oc3ccc(C(C)(C)c4ccc(O[C@H]5C[C@@H](Nc6ccc7c(c6)C(=O)N(C6CCC(=O)NC6=O)C7=O)C5)cc4)cc3)cn2)no1 (stereo partly shown) [Example 597, 2-(2,6-dioxopiperidin-3-yl)-5-(((1s,3s)-3-(4-(2-(4-((6-(5-methyl-1,2,4-oxadiazol-3-yl)pyridin-3-yl)oxy)phenyl)propan-2-yl)phenoxy)cyclobutyl)amino)isoindolin-1,3-dione] | 11 to 100 nM | –

Second part, led by results:

Row | DC50 ([2]; class symbols) | Structure (SMILES) | further results
22 | 11 to 100 nM | CC(C)(c1ccc(Oc2cnc(N3CC4(COC4)C3)cn2)cc1)c1ccc(O[C@H]2C[C@H](Nc3ccc4c(c3)C(=O)N(C3CCC(=O)NC3=O)C4=O)C2)cc1 (stereo partly shown) [Example 573] | –
23 | 11 to 100 nM | CC(C)(c1ccc(Oc2ncnc(N3CC(N4CCC4)C3)c2F)cc1)c1ccc(O[C@H]2C[C@@H](Nc3ccc4c(c3)C(=O)N(C3CCC(=O)NC3=O)C4=O)C2)cc1 (stereo partly shown) [Example 575] | –
24 | 11 to 100 nM | CCN1CC(Oc2ncnc(Oc3ccc(C(C)(C)c4ccc(O[C@H]5C[C@@H](Nc6ccc7c(c6)C(=O)N(C6CCC(=O)NC6=O)C7=O)C5)cc4)cc3)c2F)C1 (stereo partly shown) [Example 576] | –
25 | 11 to 100 nM | CC(C)(c1ccc(Oc2cc(-n3nccn3)ncn2)cc1)c1ccc(O[C@H]2C[C@@H](Nc3ccc4c(c3)C(=O)N(C3CCC(=O)NC3=O)C4=O)C2)cc1 (stereo partly shown) [Example 577] | –
26 | 11 to 100 nM | Cc1nc(-c2cnc(Oc3ccc(C(C)(C)c4ccc(O[C@H]5C[C@H](Nc6ccc7c(c6)C(=O)N(C6CCC(=O)NC6=O)C7=O)C5)cc4)cc3)cn2)no1 (stereo partly shown) [Example 586] | –
27 | 11 to 100 nM | Cc1nnc(-c2cc(Oc3ccc(C(C)(C)c4ccc(O[C@H]5C[C@H](Nc6ccc7c(c6)C(=O)N(C6CCC(=O)NC6=O)C7=O)C5)cc4)cc3)ncn2)o1 (stereo partly shown) [Example 590] | –
28 | 11 to 100 nM | CC(C)(c1ccc(Oc2cnc(C#N)cn2)cc1)c1ccc(O[C@H]2C[C@H](Nc3ccc4c(c3)C(=O)N(C3CCC(=O)NC3=O)C4=O)C2)cc1 (stereo partly shown) [Example 594, 5-(4-(2-(4-((1r,3r)-3-((2-(2,6-dioxopiperidin-3-yl)-1,3-dioxoisoindolin-5-yl)amino)cyclobutyloxy)phenyl)propan-2-yl)phenoxy)pyrazin-2-nitrile] | –
